Laboratory results reported in publication PMC7310027, “PET imaging of soluble epoxide hydrolase in non-human primate brain with [^18F]FNDP” (EJNMMI Research, 2020).

System: soluble epoxide hydrolase (sEH)
Assay: Baboon [^18F]FNDP PET, dose-escalation blocking with AR-9281 (Lassen plot, occupancy)
Type: in vivo, baboon (Papio anubis)
Procedure: PET images were acquired using a CPS/CTI high-resolution research tomograph (HRRT), which has an axial resolution (FWHM) of 2.4 mm and in-plane resolution of 2.4–2.8 mm. […] These blocking studies were performed 27 to 43 days apart from each other to ensure full animal recovery. The animals had no food for 12 h prior to each PET study. Anesthesia was induced with intramuscular ketamine (7.5–10 mg/kg) and maintained with a continuous intravenous infusion of propofol at 0.3–0.4 mg/kg/min throughout the PET experiment. One venous catheter was inserted for the radioligand injection, and one arterial catheter was inserted to obtain arterial blood samples. Baboons were intubated to facilitate respiration, and circulatory volume was maintained by constant infusion of isotonic saline. Physiological vital signs including heart rate, blood pressure, electrocardiogram, and oxygen saturation were monitored continuously throughout the study.
The animals were positioned in the PET scanner with the head immobilized using a thermoplastic mask. […] The 90-min dynamic PET acquisition was then started in three-dimensional list mode simultaneously with an intravenous bolus injection of [^18F]FNDP. […]
Next, kinetic modeling was performed based on the TACs and the metabolite-corrected arterial plasma input functions. For brain uptake, the primary outcome measure was the regional brain distribution volume (VT) of [^18F]FNDP, defined as concentration of the radiotracer in regional tissue relative to that in blood at equilibrium. We evaluated which compartmental models (e.g., two-tissue-three-compartment (2TCM) or one-tissue-two-compartment (1TCM)) best described the [^18F]FNDP PET data, using statistical model selection criteria, such as the Akaike information criterion. For comparison, the Logan graphical method (t* = 30 min) was also used to compute regional VT, as well as generating voxel-wise parametric images of VT [31].
For blocking studies, occupancy of sEH by FNDP was calculated using regional VT values as Eq 1 Occupancy=ΔVT/VTBaseline−VND,
where VND, the distribution volume of non-displaceable radioligand, was obtained from the Lassen plot, i.e., using a scatterplot of ΔVT (i.e., baseline VT minus post-blocking VT) versus baseline VT of all regions. […] When that condition was satisfied, VND was given as the intercept of the regression line with the X-axis. The non-displaceable binding potential (BPND) was computed as VT /VND − 1.

O=C(NCCC(c1ccccc1)c1ccccc1)c1ccc([18F])nc1 [[^18F]FNDP, N-(3,3-diphenylpropyl)-6-^18F-fluoronicotinamide]
K1 (2TCM) (0.02-mg/kg AR-9281 blocking scan, Baboon3): 0.170 ± 0.021 mL/cm^3/min
K1 (2TCM) (0.1-mg/kg AR-9281 blocking scan, Baboon3): 0.179 ± 0.026 mL/cm^3/min
K1 (2TCM) (1-mg/kg AR-9281 blocking scan, Baboon3): 0.166 ± 0.032 mL/cm^3/min
VND (distribution volume of non-displaceable radioligand) (Lassen plot, AR-9281 blocking scans, Baboon3): 0.865 ± 0.066 mL/mL
specific binding (binding specificity) (baboon brain): 91.70 ± 1.74%
total distribution volume (VT) (male, baboon (Papio anubis), brain, intravenous, read-out: high-dose blocking VT): 1 ± 0.09
